56 molecules from patent EP1900728A1 (Genecare Research Institute Co., Ltd, priority 2005, dated 2006) can be followed below.

This test addresses T1, IκBα ubiquitinating enzyme (SCF complex: ROC1, Cullin1, Skp1, His-TrCP1; with E1, UbcH5b) (Homo sapiens, UniProt P62877+P63208+Q13616+Q9Y297).
T1 construct: His (polyhistidine); made in house; host or cells: insect cells (baculovirus) for the SCF complex and His-E1; E. coli for His-UBCH5b
Briefly: Measurement of ubiquitinating enzyme activity (IκBα ubiquitination, time-resolved fluorescence with Eu(K)-labeled ubiquitin and XL665-labeled anti-GST antibody). Type of test: biochemical. Particulars: enzyme activity inhibition test, method (1), Table 5; read-out: EVALUATION
The procedure:
Method 1: Measurement of ubiquitinating enzyme activity
A recombinant vector His-UBCH5b containing a polyhistidine tag (His) and UBCH5b was prepared. E. coli was transformed with the vector, the protein was expressed, and affinity purification was carried out using Ni-NTA agarose (Qiagen). Four types of recombinant baculoviruses (ROC1, Cullin1, Skp1, and His-TrCP1) were prepared for the SCF complex protein, insect cells were infected in quadruplicate for expression, and affinity purification was carried out using Ni-NTA agarose. Recombinant baculoviruses His-IKKβ, His-E1 were prepared. The insect cells were infected with each of those for expression, and affinity purification was carried out using Ni-NTA agarose. A recombinant vector GST-IκBα was prepared by fusing glutathione-S-transferase tag (GST) and IκBα, E. coli was transformed with the vector for the protein expression, and affinity purification was carried out using glutathione sepharose (Amersham Biosciences). Genetic transformants were prepared by PCR amplification followed by recombination, all of which were based on published human-derived sequences.
Phosphorylation reaction of IκBα was performed by incubating the above-mentioned assay buffer (50 mM Tris-HCl (pH7.4), 2 mM ATP, 5 mM MgCl2, 0.5 mM DTT, 0.1% BSA) containing IκBα and IKKβ at room temperature for 1 hour. Ubiquitination reactions were carried out as follows. Compound samples at various concentrations, ubiquitin, Eu (K)-labeled ubiquitin, E1, UbcH5b, and SCF complex were added to phosphorylated IκBα, and then this was incubated at room temperature for 30 minutes. The reaction was terminated by adding EDTA, the above-mentioned revelation buffer (100 mM phosphate buffer (pH7.0), 0.5 M KF, 0.1% BSA) containing XL665-labeled anti-GST antibody was added and this was left to stand at room temperature for 2 hours. Measurements were made using ARVO-HTS (Perkin Elmer). The ratio of fluorescence intensities at 620 nm and 665 nm (Em 665 nm/Em 620 nm x 10,000) with excitation light at 337 nm was measured.
The ubiquitination level without the addition of a compound sample was used as the control value, and the level in the absence of SCF complex was used as the blank value for the assays. Inhibitory activities of the compounds were indicated as % inhibition = 100 - (value with a compound sample added - blank value) / (control value - blank value) x 100. IC50 was indicated as the concentration of the compound showing 50% inhibition. Eu (K)-labeled ubiquitin, XL665-labeled anti-GST antibody, and XL665-labeled anti-His antibody were purchased from CIS bio international. Costar solid black plates (96 wells) were used for the assays.

T1 sequence (Q9Y297 whole entry): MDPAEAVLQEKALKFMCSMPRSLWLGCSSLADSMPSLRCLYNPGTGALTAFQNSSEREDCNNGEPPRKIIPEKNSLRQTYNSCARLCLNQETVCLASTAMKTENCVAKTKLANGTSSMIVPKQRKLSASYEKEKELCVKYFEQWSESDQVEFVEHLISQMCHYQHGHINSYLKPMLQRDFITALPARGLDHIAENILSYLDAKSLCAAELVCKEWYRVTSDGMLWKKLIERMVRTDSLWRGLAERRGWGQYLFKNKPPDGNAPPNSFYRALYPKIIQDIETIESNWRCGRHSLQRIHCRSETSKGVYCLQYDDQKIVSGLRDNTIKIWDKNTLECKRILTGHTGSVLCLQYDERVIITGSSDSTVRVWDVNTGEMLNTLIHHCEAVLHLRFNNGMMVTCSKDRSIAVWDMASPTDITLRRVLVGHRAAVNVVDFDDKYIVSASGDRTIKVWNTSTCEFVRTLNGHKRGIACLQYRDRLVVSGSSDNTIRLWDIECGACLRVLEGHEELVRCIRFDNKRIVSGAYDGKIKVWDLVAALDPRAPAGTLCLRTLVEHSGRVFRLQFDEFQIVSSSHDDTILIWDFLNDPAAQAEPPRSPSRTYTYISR
T1 sequence (Q13616 whole entry): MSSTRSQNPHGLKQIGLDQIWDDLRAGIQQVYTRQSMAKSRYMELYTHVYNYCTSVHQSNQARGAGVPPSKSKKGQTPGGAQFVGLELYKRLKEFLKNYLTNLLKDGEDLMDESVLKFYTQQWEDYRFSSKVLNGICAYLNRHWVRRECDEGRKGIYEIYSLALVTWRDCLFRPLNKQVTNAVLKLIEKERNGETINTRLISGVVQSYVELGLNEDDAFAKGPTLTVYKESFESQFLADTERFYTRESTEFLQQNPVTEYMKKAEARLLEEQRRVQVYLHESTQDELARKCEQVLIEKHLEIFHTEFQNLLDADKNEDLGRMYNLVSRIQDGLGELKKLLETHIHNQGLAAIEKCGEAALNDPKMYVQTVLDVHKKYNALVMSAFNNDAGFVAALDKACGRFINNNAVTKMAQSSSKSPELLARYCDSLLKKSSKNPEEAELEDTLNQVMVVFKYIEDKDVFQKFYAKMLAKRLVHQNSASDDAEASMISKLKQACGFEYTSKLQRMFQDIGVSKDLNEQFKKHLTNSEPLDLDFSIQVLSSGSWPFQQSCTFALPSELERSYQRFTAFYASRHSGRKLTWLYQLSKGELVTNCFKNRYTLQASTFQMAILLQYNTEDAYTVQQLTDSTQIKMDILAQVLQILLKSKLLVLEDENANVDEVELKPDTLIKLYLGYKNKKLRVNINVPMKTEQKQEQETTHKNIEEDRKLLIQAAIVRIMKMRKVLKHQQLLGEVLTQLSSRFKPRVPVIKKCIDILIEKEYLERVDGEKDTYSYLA
T1 sequence (P63208 whole entry): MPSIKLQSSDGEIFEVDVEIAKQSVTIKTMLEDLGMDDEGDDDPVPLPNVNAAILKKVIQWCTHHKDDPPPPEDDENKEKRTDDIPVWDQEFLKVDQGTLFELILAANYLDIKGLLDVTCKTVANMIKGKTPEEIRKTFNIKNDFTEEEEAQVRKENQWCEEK
T1 sequence (P62877 whole entry): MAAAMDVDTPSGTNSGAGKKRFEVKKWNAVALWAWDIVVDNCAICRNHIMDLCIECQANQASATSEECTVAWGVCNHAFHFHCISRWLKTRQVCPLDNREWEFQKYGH

With `COc1cc(/C=C2\C(=O)N(c3ccc(C(=O)O)cc3)N=C2c2ccc(OC)c(OC)c2)ccc1O` [Compound 332], the IC50 was 10 to 20 µM. On to `COC(=O)N1CCN(c2ccc(C=C3C(=O)N(c4ccc(C(=O)O)cc4)N=C3c3ccccn3)cc2)CC1` [Compound 335], for which the IC50 fell in the range of 10 to 20 µM. Then `CCCCC1=NN(c2ccc(C(=O)O)cc2)C(=O)/C1=C\c1ccc2ccccc2c1` [Compound 336], with 10 to 20 µM; and `COc1cc(/C=C2\C(=O)N(c3ccc(C(=O)O)cc3)N=C2c2cccnc2)ccc1O` [Compound 337], with 10 to 20 µM. Then `O=C(O)c1ccc(N2N=C(c3cccnc3)/C(=C/c3ccc(-c4ccccc4F)o3)C2=O)cc1` [Compound 339], with 10 to 20 µM. The same measure for `O=C(O)c1ccc(N2N=C(c3ccncc3)/C(=C/c3ccc(-c4ccccc4F)o3)C2=O)cc1` [Compound 341]: 10 to 20 µM; for `COc1ccc(C2=NN(c3ccc(C(=O)O)cc3)C(=O)C2=Cc2ccc(-n3cccn3)cc2)cc1OC` [Compound 342]: below 40 µM; for `COc1ccc(C2=NN(c3ccc(C(=O)O)cc3)C(=O)C2=Cc2ccc(-n3cncn3)cc2)cc1OC` [Compound 343]: below 40 µM.

As for `COC(=O)N1CCN(c2ccc(C=C3C(=O)N(c4ccc(C(=O)O)cc4)N=C3c3ccncc3)cc2)CC1` [Compound 344], the IC50 is below 40 µM. `O=C(O)c1ccc(N2N=C(c3cccnc3)C(=Cc3ccc4ccccc4c3)C2=O)cc1` [Compound 345]: the IC50 lay within 10 to 20 µM. In the case of `CC1=NN(c2ccc(C(=O)N3CCC(C(=O)O)CC3)cc2)C(=O)/C1=C\c1ccc2[nH]ccc2c1` [Compound 352], the IC50 is below 10 µM. Then `CC1=NN(c2ccc(C(=O)N3CCN(c4ccccc4)CC3)cc2)C(=O)C1=Cc1ccc2[nH]ccc2c1` [Compound 353], with below 10 µM; and `CC1=NN(c2cccc(C(=O)O)c2)C(=O)/C1=C\c1cccc2[nH]ccc12` [Compound 355], with below 10 µM; and `CC1=NN(c2cccc(C(=O)O)c2)C(=O)/C1=C\c1cccc2cc[nH]c12` [Compound 356], with below 10 µM. Then `CC1=NN(c2ccc(C(=O)N3CCOCC3)cc2)C(=O)/C1=C\c1ccc2[nH]ccc2c1` [Compound 357], with below 10 µM; and `CC1=NN(c2ccc(C(=O)N3CCCCC3)cc2)C(=O)/C1=C\c1ccc2[nH]ccc2c1` [Compound 358], with below 10 µM; and `CC1=NN(c2cccc(C(=O)O)c2)C(=O)C1=Cc1cc2ccccc2n1C` [Compound 359], with below 10 µM. The same measure for `CC1=NN(c2ccc(C(=O)O)cc2)C(=O)/C1=C\c1cc2ccccc2n1C` [Compound 360]: below 10 µM. In the case of `CC1=NN(c2ccc(C(=O)N3CCC(CO)CC3)cc2)C(=O)/C1=C\c1ccc2[nH]ccc2c1` [Compound 361], the IC50 was below 10 µM.

Consider `CC1=NN(c2ccc(C(=O)N3CCCC3CO)cc2)C(=O)/C1=C\c1ccc2[nH]ccc2c1` (centres unmarked) [Compound 362], for which the IC50 was below 10 µM. `CC1=NN(c2ccc(C(=O)N(C)C)cc2)C(=O)/C1=C\c1ccc2[nH]ccc2c1` [Compound 363]: the IC50 lay within 10 to 20 µM. Then `CC1=NN(c2cccc(C(=O)O)c2)C(=O)/C1=C\c1ccc2[nH]ccc2c1` [Compound 364], with below 10 µM; and `CC1=NN(c2cccc(C(=O)O)c2)C(=O)/C1=C\c1ccc2occc2c1` [Compound 368], with below 10 µM; and `CC1=NN(c2cccc(C(=O)N3CCCCC3)c2)C(=O)/C1=C\c1ccc2[nH]ccc2c1` [Compound 369], with below 10 µM. For `CC1=NN(c2cccc(C(=O)N3CCC(CO)CC3)c2)C(=O)/C1=C\c1ccc2[nH]ccc2c1` [Compound 371], the IC50 is below 10 µM.

`CC1=NN(c2cccc(C(=O)N3CCC(C(=O)O)CC3)c2)C(=O)/C1=C\c1ccc2[nH]ccc2c1` [Compound 374]: the IC50 was below 10 µM.

Consider `CC1=NN(c2cccc(C(=O)O)c2)C(=O)/C1=C\c1c[nH]c2ccc(Cl)cc12` [Compound 377], for which the IC50 is below 10 µM. Then `CC1=NN(c2ccc(C(=O)O)cc2)C(=O)C1=Cc1c[nH]c2ccc(Cl)cc12` [Compound 378], with below 10 µM.

As for `CC1=NN(c2cccc(C(=O)O)c2)C(=O)/C1=C\c1ccc(-n2cccn2)cc1` [Compound 379], the IC50 was below 10 µM. `CC1=NN(c2ccc(C(=O)O)cc2)C(=O)/C1=C\c1ccc2cc[nH]c2c1` [Compound 380]: the IC50 was below 10 µM. Then `CC1=NN(c2cccc(C(=O)O)c2)C(=O)/C1=C\c1ccc2cc[nH]c2c1` [Compound 381], with below 10 µM; and `CC1=NN(c2cccc(C(=O)N3CCC(CO)CC3)c2)C(=O)/C1=C\c1ccc2c(c1)OCCO2` [Compound 383], with below 40 µM; and `CC1=NN(c2ccc(C(=O)N3CCOCC3)cc2)C(=O)/C1=C\c1ccc2c(c1)OCCO2` [Compound 386], with 10 to 20 µM. For the molecule `COc1cc(/C=C2\C(=O)N(c3cccc(C(=O)O)c3)N=C2C)ccc1OCC1CC1` [Compound 393], the IC50 fell in the range of 10 to 20 µM.

On to `COc1cc(/C=C2\C(=O)N(c3cccc(C(=O)O)c3)N=C2C)ccc1OCc1c(C)noc1C` [Compound 394], for which the IC50 fell in the range of 10 to 20 µM.

Regarding `CCOC(=O)c1ccc(COc2ccc(/C=C3\C(=O)N(c4cccc(C(=O)O)c4)N=C3C)cc2OC)o1` [Compound 395], the IC50 is below 40 µM. For the molecule `CC1=NN(c2ccc(C(=O)NCc3ccc4c(c3)OCO4)cc2)C(=O)/C1=C\c1ccc2c(c1)OCCO2` [Compound 397], the IC50 fell in the range of 10 to 20 µM. Then `CC1=NN(c2ccc(C(=O)NCC(C)O)cc2)C(=O)C1=Cc1ccc2c(c1)OCCO2` (centres unmarked) [Compound 398], with below 40 µM; and `CC1=NN(c2ccc(C(=O)NCC(C)O)cc2)C(=O)C1=Cc1ccc2c(c1)OCCO2` (centres unmarked) [Compound 400], with below 40 µM; and `CC1=NN(c2cccc(C(=O)NC[C@H](C)O)c2)C(=O)/C1=C\c1ccc2c(c1)OCCO2` [Compound 401], with 10 to 20 µM. With `CC1=NN(c2cccc(C(=O)O)c2)C(=O)/C1=C\c1ccc2c(c1)OCCO2` [Compound 402], the IC50 lay within 10 to 20 µM.

Take `CC1=NN(c2cccc(C(=O)NCC3CC3)c2)C(=O)/C1=C\c1ccc2c(c1)OCCO2` [Compound 404]: the IC50 is below 40 µM.

As to `COCCNC(=O)c1cccc(N2N=C(C)/C(=C/c3ccc4c(c3)OCCO4)C2=O)c1` [Compound 405], the IC50 was below 40 µM. On to `COc1cc(/C=C2\C(=O)N(c3ccc(C(=O)O)cc3)N=C2C)ccc1OCC1CCCCC1` [Compound 406], for which the IC50 was 10 to 20 µM.

Turning to `CC1=NN(c2cccc(C(=O)N(C)CCO)c2)C(=O)/C1=C\c1ccc2c(c1)OCCO2` [Compound 414], the IC50 was in the range of 10 to 20 µM.

Turning to `CC1=NN(c2cccc(C(=O)O)c2)C(=O)/C1=C\c1ccoc1` [Compound 418], the IC50 lay within 10 to 20 µM. Then `CC1=NN(c2cccc(C(=O)O)c2)C(=O)/C1=C\c1ccc(N2CCC(CO)CC2)cc1` [Compound 421], with below 10 µM; and `CC1=NN(c2cccc(C(=O)O)c2)C(=O)/C1=C\c1ccc(N2CCCC2CO)cc1` (centres unmarked) [Compound 422], with 10 to 20 µM. As to `CC1=NN(c2cccc(C(=O)O)c2)C(=O)/C1=C\c1ccc(N2CCC(C(=O)O)CC2)cc1` [Compound 424], the IC50 is below 10 µM. Take `CC1=NN(c2ccc(C(=O)O)cc2)C(=O)/C1=C\c1ccc(N2CCC(CO)CC2)cc1` [Compound 426]: the IC50 lay in the range of 10 to 20 µM.

Consider `CC1=NN(c2cccc(C(=O)O)c2)C(=O)/C1=C\c1ccc(N2CCC(N3CCCC3)CC2)cc1` [Compound 435], for which the IC50 was 10 to 20 µM. As for `O=C(O)c1ccc(N2N=C(c3ccoc3)/C(=C/c3ccc(N4CCC(CO)CC4)cc3)C2=O)cc1` [Compound 438], the IC50 was below 10 µM. With `CC1=NN(c2cccc(C(=O)O)c2)C(=O)/C1=C\c1ccc(N2CCN(C(=O)c3ccoc3)CC2)cc1` [Compound 444], the IC50 was below 10 µM. Take `CC1=NN(c2cccc(C(=O)O)c2)C(=O)/C1=C\c1ccc(N2CCN(C(=O)c3cnoc3)CC2)cc1` [Compound 445]: the IC50 was below 10 µM. Then `CCOC(=O)CN1CCN(c2ccc(/C=C3\C(=O)N(c4cccc(C(=O)O)c4)N=C3C)cc2)CC1` [Compound 446], with below 40 µM; and `CC1=NN(c2cccc(C(=O)O)c2)C(=O)/C1=C\c1ccc(N2CCN(S(C)(=O)=O)CC2)cc1` [Compound 447], with below 10 µM.
